Source: patent publication US20240150293A1, “SPIROCYCLOHEXANE DERIVATIVES, PHARMACEUTICAL COMPOSITIONS CONTAINING THEM AND THEIR USES AS ANTI-APOPTOTIC INHIBITORS” (LES LABORATOIRES SERVIER, priority 2021, published 2024)

The compounds below were run against Mcl-1 protein (UniProtKB Q07820) (Homo sapiens (Human), UniProt Q07820) (assay: Inhibition of Mcl-1 by the fluorescence polarisation assay (Example A, Method A)). Details: fluorescence polarization assay.
Type: binding
Outline: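 Protein (5 nM) and fluorescein-tagged peptide tracer (1 nM) incubated with 11-point compound series for 2 h at room temperature in HEPES/NaCl/Tween 20 buffer, pH 7.4, 5% DMSO. Displacement read as decrease in polarisation; IC50 fitted by 4-parameter logistic, converted to Ki (cKi or eKi).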

Mcl-1 protein, sequence (Q07820 whole entry): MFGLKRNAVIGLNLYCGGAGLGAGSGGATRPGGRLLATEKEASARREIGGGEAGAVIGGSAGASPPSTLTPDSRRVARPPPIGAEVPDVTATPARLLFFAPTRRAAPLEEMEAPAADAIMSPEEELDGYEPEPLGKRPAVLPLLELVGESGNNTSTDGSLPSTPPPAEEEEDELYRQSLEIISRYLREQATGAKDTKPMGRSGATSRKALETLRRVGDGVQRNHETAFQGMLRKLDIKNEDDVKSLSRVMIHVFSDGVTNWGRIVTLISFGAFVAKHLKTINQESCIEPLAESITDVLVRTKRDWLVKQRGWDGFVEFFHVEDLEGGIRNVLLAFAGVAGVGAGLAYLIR

SMILES | Ki [nM]
COc1cccc(C2Cc3ccccc3[C@]23CC[C@@](Nc2cccc(Cl)c2)(C(=O)O)CC3)c1 (single isomer, unassigned) [Example 273, (1r,4r)-4-(3-chloroanilino)-2′-(3-methoxyphenyl)-2′,3′-dihydrospiro[cyclohexane-1,1′-indene]-4-carboxylic acid] | 1720
O=C(O)[C@]1(Nc2cccc(Cl)c2)CC[C@@]2(CC1)c1ccccc1CC2c1ccc2c(c1)OCC2 (single isomer, unassigned) [Example 287, (1r,4r)-4-(3-chloroanilino)-2′-(2,3-dihydro-1-benzofuran-6-yl)-2′,3′-dihydrospiro[cyclohexane-1,1′-indene]-4-carboxylic acid] | 925
Cc1ccc(C2Cc3ccccc3[C@]23CC[C@@](Nc2cccc(Cl)c2)(C(=O)O)CC3)cc1 (single isomer, unassigned) [Example 306, (1r,4r)-4-(3-chloroanilino)-2′-(4-methylphenyl)-2′,3′-dihydrospiro[cyclohexane-1,1′-indene]-4-carboxylic acid] | 663
Cc1ccc(C2Cc3ccccc3[C@]23CC[C@@](Nc2cccc(Cl)c2)(C(=O)O)CC3)cc1 (single isomer, unassigned) [Example 307, (1r,4r)-4-(3-chloroanilino)-2′-(4-methylphenyl)-2′,3′-dihydrospiro[cyclohexane-1,1′-indene]-4-carboxylic acid] | 9170
COc1cc(Cl)cc(C2Cc3ccccc3[C@]23CC[C@@](Nc2cccc(Cl)c2)(C(=O)O)CC3)c1 (single isomer, unassigned) [Example 347, (1r,4r)-4-(3-chloroanilino)-2′-(3-chloro-5-methoxyphenyl)-2′,3′-dihydrospiro[cyclohexane-1,1′-indene]-4-carboxylic acid] | 1130
COc1cc(Cl)cc(C2Cc3ccccc3[C@]23CC[C@@](Nc2cccc(Cl)c2)(C(=O)O)CC3)c1 (single isomer, unassigned) [Example 348, (1r,4r)-4-(3-chloroanilino)-2′-(3-chloro-5-methoxyphenyl)-2′,3′-dihydrospiro[cyclohexane-1,1′-indene]-4-carboxylic acid] | 10600
O=C(O)[C@]1(Nc2cccc(Cl)c2)CC[C@@]2(CC1)c1ccccc1CC2c1ccc(OCc2ccccc2)cc1 (single isomer, unassigned) [Example 352, (1r,4r)-2′-[4-(benzyloxy)phenyl]-4-(3-chloroanilino)-2′,3′-dihydrospiro[cyclohexane-1,1′-indene]-4-carboxylic acid] | 802
O=C(O)[C@]1(Nc2cccc(Cl)c2)CC[C@@]2(CC1)c1ccccc1CC2c1ccc(OCc2ccccc2)cc1 (single isomer, unassigned) [Example 353, (1r,4r)-2′-[4-(benzyloxy)phenyl]-4-(3-chloroanilino)-2′,3′-dihydrospiro[cyclohexane-1,1′-indene]-4-carboxylic acid] | 8720
O=C(O)[C@]1(Nc2cccc(Cl)c2)CC[C@@]2(CC1)c1ccccc1CC2c1cccc(OCC2CC2)c1 (single isomer, unassigned) [Example 354, (1r,4r)-4-(3-chloroanilino)-2′-[3-(cyclopropylmethoxy)phenyl]-2′,3′-dihydrospiro[cyclohexane-1,1′-indene]-4-carboxylic acid] | 402
O=C(O)[C@]1(Nc2cccc(Cl)c2)CC[C@@]2(CC1)c1ccccc1CC2c1cccc(OCC2CC2)c1 (single isomer, unassigned) [Example 355, (1r,4r)-4-(3-chloroanilino)-2′-[3-(cyclopropylmethoxy)phenyl]-2′,3′-dihydrospiro[cyclohexane-1,1′-indene]-4-carboxylic acid] | 9960
O=C(O)[C@]1(Nc2cccc(Cl)c2)CC[C@@]2(CC1)c1ccccc1CC2c1ccc(Oc2ccncc2)cc1 (single isomer, unassigned) [Example 364, (1r,4r)-4-(3-chloroanilino)-2′-{4-[(pyridin-4-yl)oxy]phenyl}-2′,3′-dihydrospiro[cyclohexane-1,1′-indene]-4-carboxylic acid] | 459
O=C(O)[C@]1(Nc2cccc(Cl)c2)CC[C@@]2(CC1)c1ccccc1CC2c1ccc(Oc2ccncc2)cc1 (single isomer, unassigned) [Example 365, (1r,4r)-4-(3-chloroanilino)-2′-{4-[(pyridin-4-yl)oxy]phenyl}-2′,3′-dihydrospiro[cyclohexane-1,1′-indene]-4-carboxylic acid] | 3090

Second part, the compound after the results:

Ki [nM] | SMILES
1220 | O=C(O)[C@]1(Nc2cccc(Cl)c2)CC[C@@]2(CC1)c1ccccc1CC2c1coc2ccccc12 (single isomer, unassigned) [Example 284, (1r,4r)-2′-(1-benzofuran-3-yl)-4-(3-chloroanilino)-2′,3′-dihydrospiro[cyclohexane-1,1′-indene]-4-carboxylic acid]
4960 | O=C(O)[C@]1(Nc2cccc(Cl)c2)CC[C@@]2(CC1)c1ccccc1CC2c1coc2ccccc12 (single isomer, unassigned) [Example 285, (1r,4r)-2′-(1-benzofuran-3-yl)-4-(3-chloroanilino)-2′,3′-dihydrospiro[cyclohexane-1,1′-indene]-4-carboxylic acid]
14400 | O=C(O)[C@]1(Nc2cccc(Cl)c2)CC[C@@]2(CC1)c1ccccc1CC2c1ccc2ccoc2c1 (single isomer, unassigned) [Example 290, (1r,4r)-2′-(1-benzofuran-6-yl)-4-(3-chloroanilino)-2′,3′-dihydrospiro[cyclohexane-1,1′-indene]-4-carboxylic acid]
2540 | COc1cccc(C2Cc3ccccc3[C@]23CC[C@@](Nc2cccc(Cl)c2)(C(=O)O)CC3)c1Cl (single isomer, unassigned) [Example 291, (1r,4r)-4-(3-chloroanilino)-2′-(2-chloro-3-methoxyphenyl)-2′,3′-dihydrospiro[cyclohexane-1,1′-indene]-4-carboxylic acid]
499 | O=C(O)[C@]1(Nc2cccc(Cl)c2)CC[C@@]2(CC1)c1ccccc1CC2c1cccc2ccoc12 (single isomer, unassigned) [Example 293, (1r,4r)-2′-(1-benzofuran-7-yl)-4-(3-chloroanilino)-2′,3′-dihydrospiro[cyclohexane-1,1′-indene]-4-carboxylic acid]
6630 | O=C(O)[C@]1(Nc2cccc(Cl)c2)CC[C@@]2(CC1)c1ccccc1CC2c1cccc2ccoc12 (single isomer, unassigned) [Example 294, (1r,4r)-2′-(1-benzofuran-7-yl)-4-(3-chloroanilino)-2′,3′-dihydrospiro[cyclohexane-1,1′-indene]-4-carboxylic acid]
643 | O=C(O)[C@]1(Nc2cccc(Cl)c2)CC[C@@]2(CC1)c1ccccc1CC2c1cccc2c1OCC2 (single isomer, unassigned) [Example 295, (1r,4r)-4-(3-chloroanilino)-2′-(2,3-dihydro-1-benzofuran-7-yl)-2′,3′-dihydrospiro[cyclohexane-1,1′-indene]-4-carboxylic acid]
3460 | O=C(O)[C@]1(Nc2cccc(Cl)c2)CC[C@@]2(CC1)c1ccccc1CC2c1cccc2c1OCC2 (single isomer, unassigned) [Example 296, (1r,4r)-4-(3-chloroanilino)-2′-(2,3-dihydro-1-benzofuran-7-yl)-2′,3′-dihydrospiro[cyclohexane-1,1′-indene]-4-carboxylic acid]
906 | O=C(O)[C@]1(Nc2cccc(Cl)c2)CC[C@@]2(CC1)c1ccccc1CC2c1ccc(Cl)cc1 (single isomer, unassigned) [Example 319, (1r,4r)-4-(3-chloroanilino)-2′-(4-chlorophenyl)-2′,3′-dihydrospiro[cyclohexane-1,1′-indene]-4-carboxylic acid]
6860 | O=C(O)[C@]1(Nc2cccc(Cl)c2)CC[C@@]2(CC1)c1ccccc1CC2c1ccc(Cl)cc1 (single isomer, unassigned) [Example 320, (1r,4r)-4-(3-chloroanilino)-2′-(4-chlorophenyl)-2′,3′-dihydrospiro[cyclohexane-1,1′-indene]-4-carboxylic acid]
2940 | COc1cccc(C2Cc3ccccc3[C@]23CC[C@@](Nc2cccc(Cl)c2)(C(=O)O)CC3)c1C (single isomer, unassigned) [Example 321, (1r,4r)-4-(3-chloroanilino)-2′-(3-methoxy-2-methylphenyl)-2′,3′-dihydrospiro[cyclohexane-1,1′-indene]-4-carboxylic acid]
17700 | COc1cccc(C2Cc3ccccc3[C@]23CC[C@@](Nc2cccc(Cl)c2)(C(=O)O)CC3)c1C (single isomer, unassigned) [Example 322, (1r,4r)-4-(3-chloroanilino)-2′-(3-methoxy-2-methylphenyl)-2′,3′-dihydrospiro[cyclohexane-1,1′-indene]-4-carboxylic acid]
7140 | O=C(O)[C@]1(Nc2cccc(Cl)c2)CC[C@@]2(CC1)c1ccccc1CC2c1ccccc1 (single isomer, unassigned) [Example 327, (1r,4r)-4-(3-chloroanilino)-2′-phenyl-2′,3′-dihydrospiro[cyclohexane-1,1′-indene]-4-carboxylic acid]
677 | O=C(O)[C@]1(Nc2cccc(Cl)c2)CC[C@@]2(CC1)c1ccccc1CC2c1ccccc1 (single isomer, unassigned) [Example 328, (1r,4r)-4-(3-chloroanilino)-2′-phenyl-2′,3′-dihydrospiro[cyclohexane-1,1′-indene]-4-carboxylic acid]
978 | O=C(O)[C@]1(Nc2cccc(Cl)c2)CC[C@@]2(CC1)c1ccccc1CC2c1cccc(Cl)c1 (single isomer, unassigned) [Example 343, (1r,4r)-4-(3-chloroanilino)-2′-(3-chlorophenyl)-2′,3′-dihydrospiro[cyclohexane-1,1′-indene]-4-carboxylic acid]
11200 | O=C(O)[C@]1(Nc2cccc(Cl)c2)CC[C@@]2(CC1)c1ccccc1CC2c1cccc(Cl)c1 (single isomer, unassigned) [Example 344, (1r,4r)-4-(3-chloroanilino)-2′-(3-chlorophenyl)-2′,3′-dihydrospiro[cyclohexane-1,1′-indene]-4-carboxylic acid]
